Experiments:
spasticity = conditions: CREAE mice; cited from earlier work
[1] = test system: acute thermal nociception; conditions: rats; Hargraves test; cited from earlier work
neuropathic pain = conditions: rats; Chung spinal nerve ligation model; cited from earlier work
Rat FAAH = biological target: T1, Rat FAAH (Rattus norvegicus, UniProt P97612); test: Assay Method 2: FAAH assay, 3H-anandamide hydrolysis in cell homogenate; format: biochemical; conditions: average of results obtained, > value = solubility limit or highest concentration tested
T1 construct: expressed in transfected cells
T1 sequence (P97612 1-579): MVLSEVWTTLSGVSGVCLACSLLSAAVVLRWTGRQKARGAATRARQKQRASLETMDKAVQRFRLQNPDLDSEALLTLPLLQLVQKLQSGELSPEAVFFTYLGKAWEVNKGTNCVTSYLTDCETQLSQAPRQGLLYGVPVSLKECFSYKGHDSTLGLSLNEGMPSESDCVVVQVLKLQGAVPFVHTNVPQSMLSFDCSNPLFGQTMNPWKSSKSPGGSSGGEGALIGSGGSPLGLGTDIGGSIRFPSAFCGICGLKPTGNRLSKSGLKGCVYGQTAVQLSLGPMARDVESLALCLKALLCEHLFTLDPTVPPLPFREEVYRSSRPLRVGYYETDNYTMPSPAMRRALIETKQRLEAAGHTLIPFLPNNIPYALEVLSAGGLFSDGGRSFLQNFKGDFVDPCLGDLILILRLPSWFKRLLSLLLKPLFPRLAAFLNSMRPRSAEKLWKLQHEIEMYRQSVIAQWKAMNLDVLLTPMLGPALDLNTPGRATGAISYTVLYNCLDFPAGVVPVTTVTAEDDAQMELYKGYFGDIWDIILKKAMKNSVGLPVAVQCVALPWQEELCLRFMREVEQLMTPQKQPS

FAAH [2] = biological target: T2, FAAH (Homo sapiens, UniProt O00519); test: Assay Method 1: FAAH assay, 3H-anandamide hydrolysis in cell homogenate
T2 sequence (O00519 1-579): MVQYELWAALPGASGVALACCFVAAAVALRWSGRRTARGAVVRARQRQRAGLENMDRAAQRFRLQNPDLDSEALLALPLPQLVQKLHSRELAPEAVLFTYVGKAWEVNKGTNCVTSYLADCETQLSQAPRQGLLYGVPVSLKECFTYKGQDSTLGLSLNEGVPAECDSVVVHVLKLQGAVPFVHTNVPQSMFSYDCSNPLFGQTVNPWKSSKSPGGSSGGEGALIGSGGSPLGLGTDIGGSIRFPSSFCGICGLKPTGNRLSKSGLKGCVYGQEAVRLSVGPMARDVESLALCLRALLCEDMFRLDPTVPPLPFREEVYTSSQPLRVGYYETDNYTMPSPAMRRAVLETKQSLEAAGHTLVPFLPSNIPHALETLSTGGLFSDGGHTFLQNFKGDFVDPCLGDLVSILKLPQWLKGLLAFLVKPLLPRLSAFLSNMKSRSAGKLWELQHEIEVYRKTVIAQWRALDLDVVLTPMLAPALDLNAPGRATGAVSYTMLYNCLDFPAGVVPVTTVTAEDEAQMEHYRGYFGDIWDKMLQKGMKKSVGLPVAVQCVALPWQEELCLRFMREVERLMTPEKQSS
Experimental: The assay mixture consisted of 50 μL of the cell homogenate, 10 μL of the test compound, and 40 μL of anandamide [1-^3H-ethanolamine] (^3H-AEA, Perkin-Elmer, 10.3 Ci/mmol), which was added last, for a final tracer concentration of 80 nM. The reaction mixture was incubated at rt for 1 h. During the incubation, 96-well Multiscreen filter plates (catalog number MAFCNOB50; Millipore, Bedford, Mass., USA) were loaded with 25 μL of activated charcoal (Multiscreen column loader, catalog number MACL09625, Millipore) and washed once with 100 μL of MeOH. […] After the 1 h incubation, 60 μL of the reaction mixture were transferred to the charcoal plates, which were then assembled on top of the DYNEX plates using Centrifuge Alignment Frames (catalog number MACF09604, Millipore). The unbound labeled ethanolamine was centrifuged through to the bottom plate (5 min at 2000 rpm), which was preloaded with the scintillant, as described above. The plates were sealed and left at rt for 1 h before counting on a Hewlett Packard TopCount. • Assay Method 2

FAAH [3] = biological target: T2, FAAH; conditions: cited from earlier work
thermal nociception [4] = conditions: rat hot plate test; cited from earlier work
thermal nociception [5] = conditions: rats; tail emersion test; cited from earlier work
[6] = rat formalin test; cited from earlier work
anxiety = conditions: rats; zero plus maze; cited from earlier work

For CCCCCCCCCCCCCCCCS(=O)(=O)F [AM374], the reduction of spasticity (spasticity) is listed as “significantly reduce spasticity”.

For Cc1nc(-c2ccccc2)c(-c2ccccc2)n1CCCCCCNC(=O)Oc1ccccc1F [BMS-1], the analgesic effect [1] is listed as “analgesic effect” and the analgesic effect (neuropathic pain) is listed as “analgesic effect”.

O=C(Nc1ccnc2[nH]ccc12)N1CCN(Cc2cccc(Oc3ccc(Cl)cc3)c2)CC1 [Example 61, 4-[3-(4-Chloro-phenoxy)-benzyl]-piperazine-1-carboxylic acid (1H-pyrrolo[2,3-b]pyridin-4-yl)-amide] gave an IC50 (Rat FAAH) of 6000 nM and an IC50 (FAAH [2]) of 1000 nM.

CC(C)n1ncc2cc(NC(=O)N3CCN(Cc4cccc(Oc5ccc(Cl)cc5)c4)CC3)cnc21 [Example 62, 4-[3-(4-Chloro-phenoxy)-benzyl]-piperazine-1-carboxylic acid (1-isopropyl-1H-pyrazolo[3,4-b]pyridin-5-yl)-amide] gave an IC50 (Rat FAAH) of 4000 nM and an IC50 (FAAH [2]) of 220 nM.

In the case of Cc1nn(C)c2ncc(NC(=O)N3CCN(Cc4cccc(Oc5ccc(Cl)cc5)c4)CC3)cc12 [Example 64, 4-[3-(4-Chloro-phenoxy)-benzyl]-piperazine-1-carboxylic acid (1,3-dimethyl-1H-pyrazolo[3,4-b]pyridin-5-yl)-amide], the IC50 (Rat FAAH) is reported as 95 nM and the IC50 (FAAH [2]) is reported as 26 nM.

Molecule Cn1cc2c(NC(=O)N3CCN(Cc4cccc(Oc5ccc(Cl)cc5)c4)CC3)cccc2n1 [Example 65, 4-[3-(4-Chloro-phenoxy)-benzyl]-piperazine-1-carboxylic acid (2-methyl-2H-indazol-4-yl)-amide] has an IC50 (Rat FAAH) of 28 nM and an IC50 (FAAH [2]) of 50 nM.

In the case of O=C(Nc1nc2ccccc2o1)N1CCN(Cc2ccc(OC(F)(F)F)c(Cl)c2)CC1 [Example 67, 4-(3-Chloro-4-trifluoromethoxy-benzyl)-piperazine-1-carboxylic acid benzooxazol-2-ylamide], the IC50 (Rat FAAH) is reported as > 10000 nM and the IC50 (FAAH [2]) is reported as > 10000 nM.

With O=C(Nc1nc2ccccc2o1)N1CCN(Cc2ccc3c(c2)OC(F)(F)O3)CC1 [Example 68, 4-(2,2-Difluoro-benzo[1,3]dioxol-5-ylmethyl)-piperazine-1-carboxylic acid benzooxazol-2-ylamide] the IC50 (Rat FAAH) was > 10000 nM and the IC50 (FAAH [2]) was > 10000 nM.

In the case of O=C(Nc1cccc2nccn12)N1CCN(Cc2ccc(OC(F)(F)F)c(Cl)c2)CC1 [Example 70, 4-(3-Chloro-4-trifluoromethoxy-benzyl)-piperazine-1-carboxylic acid imidazo[1,2-a]pyridin-5-ylamide], the IC50 (Rat FAAH) is reported as 38 nM and the IC50 (FAAH [2]) is reported as 67 nM.

O=C(Nc1cccc2nccn12)N1CCN(Cc2ccc3c(c2)OC(F)(F)O3)CC1 [Example 71, 4-(2,2-Difluoro-benzo[1,3]dioxol-5-ylmethyl)-piperazine-1-carboxylic acid imidazo[1,2-a]pyridin-5-ylamide] showed an IC50 (Rat FAAH) of 140 nM and an IC50 (FAAH [2]) of 140 nM.

In the case of O=C(Nc1ccn2ccnc2c1)N1CCN(Cc2ccc3c(c2)OC(F)(F)O3)CC1 [Example 73, 4-(2,2-Difluoro-benzo[1,3]dioxol-5-ylmethyl)-piperazine-1-carboxylic acid imidazo[1,2-a]pyridin-7-ylamide], the IC50 (Rat FAAH) is reported as 1600 nM and the IC50 (FAAH [2]) is reported as 1400 nM.

With N#Cc1cccnc1Oc1cccc(CN2CCN(C(=O)Nc3cnc4[nH]ccc4c3)CC2)c1 [Example 77, 4-[3-(3-Cyano-pyridin-2-yloxy)-benzyl]-piperazine-1-carboxylic acid (1H-pyrrolo[2,3-b]pyridin-5-yl)-amide] the IC50 (Rat FAAH) was 2000 nM and the IC50 (FAAH [2]) was 48 nM.

N#Cc1ccnc(Oc2cccc(CN3CCN(C(=O)Nc4cnc5[nH]ccc5c4)CC3)c2)c1 [Example 78, 4-[3-(4-Cyano-pyridin-2-yloxy)-benzyl]-piperazine-1-carboxylic acid (1H-pyrrolo[2,3-b]pyridin-5-yl)-amide] showed an IC50 (Rat FAAH) of 5000 nM and an IC50 (FAAH [2]) of 84 nM.

Molecule N#Cc1ccc(Oc2cccc(CN3CCN(C(=O)Nc4cnc5[nH]ccc5c4)CC3)c2)nc1 [Example 79, 4-[3-(5-Cyano-pyridin-2-yloxy)-benzyl]-piperazine-1-carboxylic acid (1H-pyrrolo[2,3-b]pyridin-5-yl)-amide] has an IC50 (Rat FAAH) of 270 nM and an IC50 (FAAH [2]) of 22 nM.

With O=C(Nc1cnc2[nH]ccc2c1)N1CCN(Cc2cccc(Oc3ccc(C(F)(F)F)nn3)c2)CC1 [Example 80, 4-[3-(6-Trifluoromethyl-pyridazin-3-yloxy)-benzyl]-piperazine-1-carboxylic acid (1H-pyrrolo[2,3-b]pyridin-5-yl)-amide] the IC50 (Rat FAAH) was 180 nM and the IC50 (FAAH [2]) was 3 nM.

O=C(Nc1cnc2[nH]ccc2c1)N1CCC(Cc2ccc(Cl)c(Cl)c2)CC1 [Example 81, 4-(3,4-Dichloro-benzyl)-piperidine-1-carboxylic acid (1H-pyrrolo[2,3-b]pyridin-5-yl)-amide] showed an IC50 (Rat FAAH) of 3 nM and an IC50 (FAAH [2]) of 3 nM.

In the case of O=C(Nc1cnc2ccccn12)N1CCC(Cc2ccc(Cl)c(Cl)c2)CC1 [Example 82, 4-(3,4-Dichlorobenzyl)-N-imidazo[1,2-a]pyridin-3-ylpiperidine-1-carboxamide], the IC50 (Rat FAAH) is reported as 800 nM and the IC50 (FAAH [2]) is reported as 900 nM.

For O=C(Nc1cnc2cccnn12)N1CCC(Cc2ccc(Cl)c(Cl)c2)CC1 [Example 83, 4-(3,4-Dichlorobenzyl)-N-imidazo[1,2-b]pyridazin-3-ylpiperidine-1-carboxamide], the IC50 (Rat FAAH) was 30 nM and the IC50 (FAAH [2]) was 15 nM.

In the case of O=C(Nc1nocc1Cl)N1CCC(Cc2cnc3ccccc3c2)CC1 [Example 84, 4-Quinolin-3-ylmethyl-piperidine-1-carboxylic acid (4-chloro-isoxazol-3-yl)-amide], the IC50 (Rat FAAH) is reported as 35 nM and the IC50 (FAAH [2]) is reported as 14 nM.

Work on O=C(Nc1nocc1Cl)N1CCN(Cc2ccc3c(c2)OC(F)(F)O3)CC1 [Example 86, 4-(2,2-Difluoro-benzo[1,3]dioxol-5-ylmethyl)-piperazine-1-carboxylic acid (4-chloro-isoxazol-3-yl)-amide] yielded an IC50 (Rat FAAH) of 280 nM and an IC50 (FAAH [2]) of 73 nM.

For O=C(CCCCCCc1ccccc1)c1ncc(-c2ccccn2)o1 [OL-135], the “inhibition of FAAH” value (FAAH [3]) is listed as “potent inhibitor”, the “analgesic efficacy / activity” value (thermal nociception [4]) is listed as “analgesic activity” and the analgesic activity (thermal nociception [5]) is listed as “analgesic activity”.

For NC(=O)c1cccc(-c2cccc(OC(=O)NC3CCCCC3)c2)c1 [URB-597], the “analgesic efficacy / activity” value (thermal nociception [4]) is given as “analgesic efficacy”, the analgesic efficacy [6] is given as “analgesic efficacy” and the “efficacy in anxiety model” value (anxiety) is given as “efficacy”.
